The record followed here is ChEMBL document CHEMBL1201862, “PubChem BioAssay data set” (2004).

Active and inactive are the calls of the source.

The test system of assay [1] is HEK293. As to the kind of experiment: HEK cell cytotoxicity by LDH release, dose response, cytotoxicity control for IDE activator project, fluorescence, HEK cells (AID 588440).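 Note: cytotoxicity by LDH release measuring loss of membrane integrity.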 It counts as functional, cell-based. Conditions: Homo sapiens.
Assay [2] deals with T1, Insulin-degrading enzyme (Homo sapiens, UniProt P14735).
T1 sequence (P14735 whole entry): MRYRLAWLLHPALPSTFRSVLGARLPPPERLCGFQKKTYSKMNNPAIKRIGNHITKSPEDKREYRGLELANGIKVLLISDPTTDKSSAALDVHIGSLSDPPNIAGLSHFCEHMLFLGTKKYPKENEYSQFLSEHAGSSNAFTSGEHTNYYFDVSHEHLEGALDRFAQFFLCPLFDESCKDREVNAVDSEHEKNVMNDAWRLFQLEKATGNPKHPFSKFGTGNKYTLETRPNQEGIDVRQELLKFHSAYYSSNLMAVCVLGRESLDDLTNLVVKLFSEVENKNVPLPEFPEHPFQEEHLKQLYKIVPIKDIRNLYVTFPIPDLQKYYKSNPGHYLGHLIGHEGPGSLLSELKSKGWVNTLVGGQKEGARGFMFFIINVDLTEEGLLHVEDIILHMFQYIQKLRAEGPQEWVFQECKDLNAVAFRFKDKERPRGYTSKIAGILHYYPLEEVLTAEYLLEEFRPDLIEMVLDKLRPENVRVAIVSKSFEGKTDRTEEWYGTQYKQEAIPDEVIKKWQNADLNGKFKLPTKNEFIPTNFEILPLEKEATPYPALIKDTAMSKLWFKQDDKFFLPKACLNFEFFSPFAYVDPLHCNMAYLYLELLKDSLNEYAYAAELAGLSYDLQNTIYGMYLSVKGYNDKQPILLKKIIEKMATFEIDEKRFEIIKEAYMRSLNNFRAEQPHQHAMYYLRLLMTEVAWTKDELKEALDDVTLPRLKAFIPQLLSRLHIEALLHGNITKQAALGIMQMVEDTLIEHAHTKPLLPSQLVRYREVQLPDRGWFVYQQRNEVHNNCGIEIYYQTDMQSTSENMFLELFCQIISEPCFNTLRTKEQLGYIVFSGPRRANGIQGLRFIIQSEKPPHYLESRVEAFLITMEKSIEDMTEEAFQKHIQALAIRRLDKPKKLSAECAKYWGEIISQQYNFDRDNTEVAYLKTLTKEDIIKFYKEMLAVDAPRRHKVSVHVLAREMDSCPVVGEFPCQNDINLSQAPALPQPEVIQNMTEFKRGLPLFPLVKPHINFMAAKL
Briefly: activators of recombinant IDE enzyme, dose response, counter-screen for IDE activator project, biochemical, fluorescence polarization (AID 588681).

Assay [3] relates to HEK293. As to the kind of experiment: optical interference in Abeta FP readout, dose response, artefact control for IDE activator project, biochemical, fluorescence polarization (AID 588442). Conditions: Homo sapiens. It counts as functional, cell-based.
In assay [4] the target is T1, Insulin-degrading enzyme. As to the kind of experiment: activators of endogenous IDE in HEK cells, dose response, cell-based, fluorescence polarization (AID 588439). It counts as functional.
The target in assay [5] is Hepatocyte nuclear factor 4-alpha (Homo sapiens, UniProt P41235). It counts as functional, cell-based.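 Note: biochemical luminescence-based dose-response counterscreen measuring inhibition of HNF4 dimerization, run alongside a screen for blockers of ABHD5–perilipin-5 interaction; split luciferase complementation of HNF4 fusion proteins in cell lysate measuring dimerization.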
Chain of Hepatocyte nuclear factor 4-alpha (P41235 whole entry, the tested form may be a part): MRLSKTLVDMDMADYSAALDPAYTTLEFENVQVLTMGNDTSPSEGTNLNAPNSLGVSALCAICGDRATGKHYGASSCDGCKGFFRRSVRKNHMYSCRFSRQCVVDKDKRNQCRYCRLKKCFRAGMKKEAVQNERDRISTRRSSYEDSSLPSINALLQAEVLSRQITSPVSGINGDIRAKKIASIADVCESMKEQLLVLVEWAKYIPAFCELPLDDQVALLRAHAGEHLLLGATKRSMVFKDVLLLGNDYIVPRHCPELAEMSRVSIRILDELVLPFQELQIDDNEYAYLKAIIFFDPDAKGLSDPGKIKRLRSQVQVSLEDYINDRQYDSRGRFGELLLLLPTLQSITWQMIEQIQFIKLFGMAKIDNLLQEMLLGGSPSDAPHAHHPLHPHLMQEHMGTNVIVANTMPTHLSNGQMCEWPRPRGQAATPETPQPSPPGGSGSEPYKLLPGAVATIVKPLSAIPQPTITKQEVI
The target in the next assay is T2, Caspase-3 (Homo sapiens, UniProt P42574).
T2 sequence (P42574 whole entry): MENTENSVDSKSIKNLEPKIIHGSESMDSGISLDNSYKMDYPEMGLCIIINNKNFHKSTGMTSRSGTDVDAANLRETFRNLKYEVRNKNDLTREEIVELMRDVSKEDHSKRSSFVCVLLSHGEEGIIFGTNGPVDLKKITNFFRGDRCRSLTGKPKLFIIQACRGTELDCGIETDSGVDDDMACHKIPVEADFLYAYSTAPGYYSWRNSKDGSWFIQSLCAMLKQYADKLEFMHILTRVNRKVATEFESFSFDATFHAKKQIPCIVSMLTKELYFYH
Briefly: SAR Analysis of small molecule inhibitors of Sentrin-specific proteases (SENPs) using a Caspase-3 Selectivity assay. [Related pubchem assays (depositor defined):AID2540, AID2599, AID434973, AID489001]. In kind it is functional.

For assay [6], the target named is T3, Sentrin-specific protease 6 (Homo sapiens, UniProt Q9GZR1).
T3 sequence (Q9GZR1 whole entry): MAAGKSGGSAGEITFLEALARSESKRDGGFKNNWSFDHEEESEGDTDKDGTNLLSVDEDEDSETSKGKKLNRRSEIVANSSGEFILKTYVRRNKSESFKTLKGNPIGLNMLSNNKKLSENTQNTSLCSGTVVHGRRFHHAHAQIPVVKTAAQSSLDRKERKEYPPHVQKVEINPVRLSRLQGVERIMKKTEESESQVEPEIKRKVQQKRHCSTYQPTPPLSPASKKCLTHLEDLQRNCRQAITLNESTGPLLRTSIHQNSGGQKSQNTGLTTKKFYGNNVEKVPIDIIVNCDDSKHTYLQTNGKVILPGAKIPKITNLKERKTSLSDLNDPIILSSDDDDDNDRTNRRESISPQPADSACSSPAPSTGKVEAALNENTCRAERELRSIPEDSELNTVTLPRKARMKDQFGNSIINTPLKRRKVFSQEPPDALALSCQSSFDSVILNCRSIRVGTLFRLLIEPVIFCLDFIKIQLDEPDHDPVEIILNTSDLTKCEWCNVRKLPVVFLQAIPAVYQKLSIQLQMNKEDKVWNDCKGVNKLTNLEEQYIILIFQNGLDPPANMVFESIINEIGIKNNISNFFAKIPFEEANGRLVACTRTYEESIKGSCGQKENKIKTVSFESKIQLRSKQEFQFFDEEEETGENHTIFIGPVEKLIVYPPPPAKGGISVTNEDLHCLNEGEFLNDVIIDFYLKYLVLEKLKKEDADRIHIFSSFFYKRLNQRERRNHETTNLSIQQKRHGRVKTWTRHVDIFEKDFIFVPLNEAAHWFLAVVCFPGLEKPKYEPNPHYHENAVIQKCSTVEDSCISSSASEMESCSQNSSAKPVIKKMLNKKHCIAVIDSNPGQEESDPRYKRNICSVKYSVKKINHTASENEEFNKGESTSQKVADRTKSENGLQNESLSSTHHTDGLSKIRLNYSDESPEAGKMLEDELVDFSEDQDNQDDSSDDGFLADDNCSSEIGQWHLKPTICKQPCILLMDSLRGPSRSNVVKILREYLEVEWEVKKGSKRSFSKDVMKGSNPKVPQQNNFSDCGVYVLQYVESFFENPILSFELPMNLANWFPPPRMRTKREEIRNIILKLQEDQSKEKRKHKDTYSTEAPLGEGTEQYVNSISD
As to the kind of experiment: SAR Analysis of small molecule inhibitors of Sentrin-specific protease 6 (SENP6) using a Luminescent assay. [Related pubchem assays (depositor defined):AID2582, AID2599]. In kind it is functional.

The target in assay [7] is T4, Sentrin-specific protease 8 (Homo sapiens, UniProt Q96LD8).
T4 sequence (Q96LD8 whole entry): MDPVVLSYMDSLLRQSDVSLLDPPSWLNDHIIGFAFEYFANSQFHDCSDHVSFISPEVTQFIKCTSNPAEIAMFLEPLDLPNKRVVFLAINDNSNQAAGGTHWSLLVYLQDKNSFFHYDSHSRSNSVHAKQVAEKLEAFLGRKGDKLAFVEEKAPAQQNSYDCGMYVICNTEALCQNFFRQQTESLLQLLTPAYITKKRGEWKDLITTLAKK
As to the kind of experiment: SENP8 protease inhibitors, SAR follow-up, biochemical, luminescence (AID 504501). In kind it is functional.

Assay [8] concerns the target T5, Sentrin-specific protease 7 (Homo sapiens, UniProt Q9BQF6).
T5 sequence (Q9BQF6 whole entry): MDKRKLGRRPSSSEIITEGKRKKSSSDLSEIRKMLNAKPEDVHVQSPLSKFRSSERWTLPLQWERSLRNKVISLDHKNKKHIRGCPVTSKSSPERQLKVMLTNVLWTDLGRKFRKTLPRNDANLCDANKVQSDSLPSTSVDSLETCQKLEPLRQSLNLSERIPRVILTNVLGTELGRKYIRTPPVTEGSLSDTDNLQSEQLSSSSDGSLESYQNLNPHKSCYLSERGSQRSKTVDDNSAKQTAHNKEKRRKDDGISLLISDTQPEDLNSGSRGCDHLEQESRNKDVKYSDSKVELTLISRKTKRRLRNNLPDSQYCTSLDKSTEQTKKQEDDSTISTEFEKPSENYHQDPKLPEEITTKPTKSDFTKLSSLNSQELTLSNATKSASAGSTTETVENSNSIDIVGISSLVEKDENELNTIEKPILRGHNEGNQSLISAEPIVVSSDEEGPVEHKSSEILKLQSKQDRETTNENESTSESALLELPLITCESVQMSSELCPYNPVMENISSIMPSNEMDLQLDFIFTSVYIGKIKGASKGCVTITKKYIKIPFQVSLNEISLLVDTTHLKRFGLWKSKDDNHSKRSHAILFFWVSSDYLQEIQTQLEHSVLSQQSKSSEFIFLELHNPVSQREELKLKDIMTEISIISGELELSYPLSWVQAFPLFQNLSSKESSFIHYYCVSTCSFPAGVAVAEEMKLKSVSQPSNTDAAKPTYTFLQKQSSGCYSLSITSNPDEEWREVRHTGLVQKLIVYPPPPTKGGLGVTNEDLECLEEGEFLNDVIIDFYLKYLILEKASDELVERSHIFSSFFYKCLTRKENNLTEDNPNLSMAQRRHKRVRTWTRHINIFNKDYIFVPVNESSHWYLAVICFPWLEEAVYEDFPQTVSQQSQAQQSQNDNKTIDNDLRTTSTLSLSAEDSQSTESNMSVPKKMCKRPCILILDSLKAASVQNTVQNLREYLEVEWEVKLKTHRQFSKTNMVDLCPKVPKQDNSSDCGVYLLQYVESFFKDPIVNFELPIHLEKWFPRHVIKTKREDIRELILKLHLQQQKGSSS
As to the kind of experiment: SENP7 protease inhibitors, SAR follow-up, biochemical, luminescence (AID 504497). It counts as functional.

The test system of another assay is Vero. As to the kind of experiment: Vero cell cytotoxicity, cytotoxicity control for flavivirus capping enzyme inhibitors (AID 588742). In kind it is functional. Conditions: Chlorocebus sabaeus.
The next assay deals with T6, Estrogen receptor (Homo sapiens, UniProt P03372).
T6 sequence (P03372 whole entry): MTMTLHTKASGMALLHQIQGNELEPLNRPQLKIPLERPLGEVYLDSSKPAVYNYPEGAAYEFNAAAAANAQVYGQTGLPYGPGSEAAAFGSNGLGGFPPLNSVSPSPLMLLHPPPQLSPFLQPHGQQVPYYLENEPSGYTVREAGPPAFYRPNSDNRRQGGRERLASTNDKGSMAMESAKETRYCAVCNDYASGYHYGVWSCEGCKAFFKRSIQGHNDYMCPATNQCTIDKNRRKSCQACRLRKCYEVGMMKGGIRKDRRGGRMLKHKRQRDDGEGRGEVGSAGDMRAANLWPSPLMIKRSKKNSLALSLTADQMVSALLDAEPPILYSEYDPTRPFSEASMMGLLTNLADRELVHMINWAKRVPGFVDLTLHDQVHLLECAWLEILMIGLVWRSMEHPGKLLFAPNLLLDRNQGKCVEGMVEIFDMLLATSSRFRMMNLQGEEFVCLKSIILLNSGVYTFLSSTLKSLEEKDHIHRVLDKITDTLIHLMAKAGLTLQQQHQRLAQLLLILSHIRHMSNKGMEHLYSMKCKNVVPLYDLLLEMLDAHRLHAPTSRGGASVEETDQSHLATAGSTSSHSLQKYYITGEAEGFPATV

The target of the next assay is Estrogen receptor beta (Homo sapiens, UniProt Q92731).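 Note: recombinant ER-beta bound to coactivator SRC1 peptide in presence of estradiol agonist; inhibitors block coactivator peptide binding and lower the FRET signal.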
Chain of Estrogen receptor beta (Q92731 whole entry): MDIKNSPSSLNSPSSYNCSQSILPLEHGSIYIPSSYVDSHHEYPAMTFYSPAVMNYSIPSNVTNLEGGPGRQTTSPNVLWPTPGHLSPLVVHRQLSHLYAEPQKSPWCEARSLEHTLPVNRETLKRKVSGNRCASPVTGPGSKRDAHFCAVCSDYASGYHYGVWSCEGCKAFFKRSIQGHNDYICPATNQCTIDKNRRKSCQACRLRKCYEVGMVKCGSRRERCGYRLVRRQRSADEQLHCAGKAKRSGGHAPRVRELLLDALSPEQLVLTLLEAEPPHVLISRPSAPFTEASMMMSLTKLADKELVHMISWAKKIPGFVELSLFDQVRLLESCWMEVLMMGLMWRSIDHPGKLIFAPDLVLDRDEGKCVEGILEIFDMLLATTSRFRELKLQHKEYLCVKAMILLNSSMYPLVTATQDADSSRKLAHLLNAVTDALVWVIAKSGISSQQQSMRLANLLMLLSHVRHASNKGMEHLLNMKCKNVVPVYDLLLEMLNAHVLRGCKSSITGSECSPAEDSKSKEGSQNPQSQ

Take `CC(OC(=O)c1ccc(Cl)nc1)C(=O)NC1(C#N)CCCCC1` (centres undefined): in the assay on HEK293 [1], the IC50 is > 89.3 µM (inactive). For the same compound, the EC50 on Insulin-degrading enzyme [2], in the assay on HEK293 [3] and at Insulin-degrading enzyme [4] was > 54.7 µM (inactive) throughout.
Take `O=C1CC(c2ccc(Cl)cc2)Oc2ccc(Cl)cc21` (centres undefined): in [5], the IC50 was 6.14 µM (active).
In the case of `COc1ccc(C2C(C#N)=C(N)Oc3c2c(C)nn3-c2ccccc2)cc1` (centres undefined), the IC50 at Caspase-3 is > 99 µM (inactive); in assay [6], 32.4 µM (active); in assay [7] it was > 99 µM (inactive); in [8], 63 µM (active).
Take `O=C(Nc1ccc(N2CCCC2)cc1)C(Cl)c1ccccc1` (centres undefined): the CC50 in the assay with Vero is > 40 µM (active). Besides, the IC50 against Estrogen receptor and against Estrogen receptor beta was > 50 µM (not active) in each case.
On to `Cc1ccsc1C(=O)Nc1nc2ccc(Cl)cc2s1`, for which the concentration for half-maximal inhibition (IC50) at Caspase-3 is 0.48 µM (active); in [6], 0.66 µM (active); in assay [7], 0.62 µM (active); in assay [8], 0.75 µM (active).
As for `O=C(c1cnn(C(=O)c2ccco2)c1)c1cc(F)ccc1O`, in the assay with HEK293 [1], the IC50 is > 89.1 µM (inactive). Moreover, the EC50 at Insulin-degrading enzyme [2], in the assay with HEK293 [3] and at Insulin-degrading enzyme [4] was > 54.7 µM (inactive) each time.
Turning to `C(=C\c1nc(-c2ccc(N3CCOCC3)cc2)no1)/c1ccccc1`, the IC50 (at Caspase-3; in assay [6]; in assay [7]; in assay [8]) was > 99 µM (inactive) throughout.
